# In paper PMC4728661, “Cancer Prevention and Health Benefices of Traditionally Consumed Borago officinalis Plants” (Nutrients, 2016):
# Marks after values point to notes of the source that are not given here.
# Experiments:
# D. melanogaster [1] = experiment: Toxicity: survival of Drosophila larvae to emerged adults, simple and combined (H2O2) treatments; assay type: in vivo, Drosophila melanogaster; conditions: H2O2 0.12 M alone (positive control)
# Description: Optimal fertile flies were anesthetized under CO2 narcotisation for cross selection and then placed in new vials for fertilization. After that, hybrid eggs from crossing were collected over an 8 h period and emerged larvae (72 ± 4 h later) were cleaned up for a few seconds in sterile distilled water to remove feeding medium rests. […] Bioactive compound concentrations were chosen on the basis of their known content in B. officinalis species. […] Larvae were fed on these media until pupation (about 48 h). After emergence, resulting adult flies were sacrificed under CO2 narcotisation and stored in a 70% ethanol solution in sterile water. […] The determination of Toxicity (T) of treatments in D. melanogaster was performed following this formula [39]: T = (N° of emerging individuals in treatment/N° of emerging individuals in the negative control) × 100(1) Differences in D. melanogaster survival between treatments at each concentration with respect to negative control were analyzed with a Chi-square test. This procedure was also performed for the analysis of each simple treatment with their correspondent combined treatment.
# D. melanogaster [2] = experiment: Genotoxicity: Somatic Mutation and Recombination Test (SMART), wing spot test, simple treatments; assay type: in vivo, Drosophila melanogaster; conditions: H2O2 0.12 M alone (positive control); for Diagnosis, Small Single Spots 1–2 Cells m = 2: key: + (positive); − (negative); for Diagnosis, Total Spots m = 2: key: + (positive); − (negative)
# Description: The D. melanogaster system was selected for the determination of the safety of B. officinalis consumption as a well-recognized method to analyze vegetable complex mixtures using SMART [31, 32]. This test was used in order to evaluate the genotoxic and antigenotoxic activity of B. officinalis leaves and petioles as well as their selected bioactive compounds [33]. This activity was measured by direct visualization of the occurrence of recessive mutations in the wing hairs of two different D. melanogaster strains. Flies from experiments carried these visible wing genetic markers: the flare (flr) strain flr^3/ln (3LR) TM3, Bd^s and the multiple wing-hair (mwh) strain mwh/mwh. The marker flare (flr^3, 3_38.3) produces individual malformed hairs and the marker multiple wing hairs (mwh, 3_0.3) produces multiple hairs per cell. Larvae used in treatments come from two types of crosses: the standard cross with flr^3/TM3, Bd^S females mated to mwh/mwh males and the reciprocal cross.
# Optimal fertile flies were anesthetized under CO2 narcotisation for cross selection and then placed in new vials for fertilization. After that, hybrid eggs from crossing were collected over an 8 h period and emerged larvae (72 ± 4 h later) were cleaned up for a few seconds in sterile distilled water to remove feeding medium rests. For genotoxicity analysis (simple treatments), groups of 100 larvae were transferred into vials containing 0.85 g of Drosophila Instant Medium (Formula 4–24, Carolina Biological Supply, Burlington, NC, USA) wetted with 4 mL of a mixture of distilled water and increasing concentrations of samples: B. officinalis BF and WF (1.25, 2.5, and 5 mg·mL^−1), RO (0.35, 0.7, 1.39 and 2.78 mM), SY (0.16, 0.32, 0.63 and 1.26 mM), SI (0.15, 0.29, 0.58 and 1.16 mM) and the mixture of these three bioactive compounds at each concentration assayed individually. Bioactive compound concentrations were chosen on the basis of their known content in B. officinalis species. […] Larvae were fed on these media until pupation (about 48 h). After emergence, resulting adult flies were sacrificed under CO2 narcotisation and stored in a 70% ethanol solution in sterile water. Emerged adults were counted for toxicity evaluation and transheterozygous wings (mwh flr^+/mwh^+ flr^3) were mounted on microscope slides and wing hair mutations (spots) scored, using a photonic microscope (Nikon) at 400× magnification for genotoxicity and antigenotoxicity evaluation.
# For the evaluation of genotoxic effects, the frequencies of spots per fly of each treated series were compared to the concurrent negative control for each class of mutational clone as well as between simple and combined treatments for the same concentration comparisons. […] A multiple-decision procedure was used to categorize results as positive, inconclusive or negative. Inconclusive and positive results were evaluated by the non-parametric U test of Mann, Whitney and Wilcoxon. The inhibition percentage (IP) of genotoxicity was calculated from the total frequencies of spots per wing, following this formula [42]: IP = (genotoxin alone − sample + genotoxin) × 100/(genotoxin alone)(2)
compound,measurement,setting,value
"OO [H2O2, hydrogen peroxide, reference compound]",Survival,D. melanogaster [1],37.87 * %
same,"Diagnosis, Small Single Spots 1–2 Cells m = 2",D. melanogaster [2],+
same,"Diagnosis, Total Spots m = 2",D. melanogaster [2],+
same,"Mutation rate, Large Single Spots >2 Cells m = 5",D. melanogaster [2],0.07 (11) spots/wing
same,"Mutation rate, Small Single Spots 1–2 Cells m = 2",D. melanogaster [2],0.60 (94) spots/wing
same,"Mutation rate, Total Spots m = 2",D. melanogaster [2],0.65 (109) spots/wing
same,"Mutation rate, Twin Spots m = 5",D. melanogaster [2],0.06 (4) spots/wing
